Test results: article PMC7457137, “An Integrated Pharmacokinetic Study of an Acanthopanax senticosus Extract Preparation by Combination of Virtual Screening, Systems Pharmacology, and Multi-Component Pharmacokinetics in Rats” (Frontiers in Pharmacology, 2020)
Blank lines part the entries; values can stand above or below the compound they belong to.

What was measured:
[1] = system: zebrafish model; set-up: method as in Lin et al., 2017; Hu et al., 2018; conditions: ref Lin et al., 2017, Hu et al., 2018; cited from earlier work
[2] = system: insulin resistance; set-up: method as in Ma et al., 2015; conditions: high-fat diet-fed rats; ref Ma et al., 2015; cited from earlier work
[3] = Multi-component PK in rats after i.v. administration of ASEP; type: in vivo, Sprague-Dawley rats; conditions: male, Sprague-Dawley, rat, iv
Method: The animal experiments were conducted in line with the Guide for the Care and Use of Laboratory Animals (published by the USA National Institutes of Health, NIH Publication no. 85-23, revised 1996), which were approved by the Animal Care and Use Committee of the College of Animal Science (College of Bee Science), Fujian Agriculture and Forestry University (Approval Number: […]2019004). […] All rats were acclimated to the facilities and environment for 7 days before the experiments. […] The gradient elution was carried out by the mobile phase water with 0.1% formic acid (A) and methanol (B). […] The column temperature and flow rate were at 35 °C and 0.5 ml/min, resepectively. 5 μl sample solution was injected for the HPLC-MS analysis. The electrospray ionization (ESI) source conditions were as follows: block heating temperature was kept at 400 °C; desolvation line temperature was set at 250 °C; dry gas (nitrogen) flow rate was kept at 15 L/min; and auxiliary gas (nitrogen) flow rate was 3 L/min. […] The plasma samples were separated by centrifugation, followed by storing at -20 °C before analysis. […] A DAS 3.0 software (Chinese Pharmacologic Society, Beijing, China) was used to calculate the noncompartmental PK parameters. All the results were presented as mean ± SD, and statistics analysis was done with a single-tailed Student's t test in the work.

[4] = system: human umbilical vein endothelial cells; set-up: method as in Lin et al., 2017; Hu et al., 2018; conditions: ref Lin et al., 2017, Hu et al., 2018; cited from earlier work
[5] = Stability of the compounds in rat plasma (LC-MS validation); type: in vitro ADME
From the text: According to the “Guidelines for non-clinical pharmacokinetics of drugs” issued by Centre for Drug Evaluation, National Medical Products Administration, China ([Guidelines for non-clinical pharmacokinetics of drugs, 2014]), the LC-MS method was validated by linearity, limits of detection (LOD), limits of quantification (LOQ), precision, accuracy, extraction recovery, matrix effect and stability of the 6 compounds in rat plasma. In brief, blank rat plasma was obtained from the other six rats. The standard mixture solution containing the 6 compounds (with the concentration of 1 mg/ml for each) was diluted with […] to prepare a series of working solution containing the 6 compounds (concentration level: 20, 50, 100, 250, 500 ng/ml and 1, 2.5, 5, 10, 25, 50, 100, 125 150, 200 μg/ml) and IS (2.5μg/ml). For calibration curve, 10 μl of the series of working solution containing the IS (2.5μg/ml) was added into 100 μl of blank plasma. Finally, 15 data points (2, 5, 10, 25, 50, 100, 250, 500 ng/ml and 1, 2.5, 5, 10, 12.5 15, 20 μg/ml) were used in the calibration curve linearity. Calibration curves were plotted by weighted linear regression of the peak area ratio of analyte to the IS against the related nominal concentration of the analyte. LOD and LOQ were defined as the detectable concentration at which the ratio of signal to noise was about 3 and 10, respectively ([Huang et al., 2019]). […] The extraction recovery and matrix effect were also assessed at the above-mentioned three concentration levels for the 6 ingredients in the spiked plasma samples ([Huang et al., 2019]). Stability was examined under the condition of setting un-treated plasma samples at ambient temperature for 6 h, and extracted plasma samples in auto-sampler for 10 h, as well as setting plasma samples for three freeze-thaw cycles and at −80°C for 15 days ([Guidelines for non-clinical pharmacokinetics of drugs, 2014]).

[6] = system: AKT; set-up: method as in Yang et al., 2018; conditions: down-regulates transcriptional activity of FoxO1; ref Yang et al., 2018; cited from earlier work

AUC(0-t) ([3]; plasma, 1.76 ml/kg, rat plasma, Low group: single i.v. 1.76 ml/kg of 5 times concentrated ASEP, mean ± SD, n=3, read-out: AUC0-t): 1830 ng·h/mL | AUC(0-inf) ([3]; plasma, 1.76 ml/kg, rat plasma, Low group: single i.v. 1.76 ml/kg of 5 times concentrated ASEP, mean ± SD, n=3, read-out: AUC0-∞): 1830 ng·h/mL | clearance ([3]; plasma, 1.76 ml/kg, rat plasma, Low group: single i.v. 1.76 ml/kg of 5 times concentrated ASEP, mean ± SD, n=3, read-out: Cl (converted)): 8.5 mL/min | MRT last ([3]; plasma, 1.76 ml/kg, rat plasma, Low group: single i.v. 1.76 ml/kg of 5 times concentrated ASEP, mean ± SD, n=3, read-out: MRT0-t): 25.8 ± 1.2 min | MRT inf ([3]; plasma, 1.76 ml/kg, rat plasma, Low group: single i.v. 1.76 ml/kg of 5 times concentrated ASEP, mean ± SD, n=3, read-out: MRT0-∞): 25.8 ± 1.2 min | Vd ([3]; plasma, 1.76 ml/kg, rat plasma, Low group: single i.v. 1.76 ml/kg of 5 times concentrated ASEP, mean ± SD, n=3, read-out: Vd): 0.26 ± 0.01 L | half-life ([3]; plasma, 1.76 ml/kg, rat plasma, Low group: single i.v. 1.76 ml/kg of 5 times concentrated ASEP, mean ± SD, n=3, read-out: t 1/2 (converted)): 21.6 ± 0.6 min | AUC(0-t) ([3]; plasma, 3.52 ml/kg, rat plasma, High group: single i.v. 3.52 ml/kg of 5 times concentrated ASEP, mean ± SD, n=3, read-out: AUC0-t): 3410 ng·h/mL | AUC(0-inf) ([3]; plasma, 3.52 ml/kg, rat plasma, High group: single i.v. 3.52 ml/kg of 5 times concentrated ASEP, mean ± SD, n=3, read-out: AUC0-∞): 3420 ng·h/mL | clearance ([3]; plasma, 3.52 ml/kg, rat plasma, High group: single i.v. 3.52 ml/kg of 5 times concentrated ASEP, mean ± SD, n=3, read-out: Cl (converted)): 9 mL/min | MRT last ([3]; plasma, 3.52 ml/kg, rat plasma, High group: single i.v. 3.52 ml/kg of 5 times concentrated ASEP, mean ± SD, n=3, read-out: MRT0-t): 25.2 min | MRT inf ([3]; plasma, 3.52 ml/kg, rat plasma, High group: single i.v. 3.52 ml/kg of 5 times concentrated ASEP, mean ± SD, n=3, read-out: MRT0-∞): 25.8 min | Vd ([3]; plasma, 3.52 ml/kg, rat plasma, High group: single i.v. 3.52 ml/kg of 5 times concentrated ASEP, mean ± SD, n=3, read-out: Vd): 0.64 L | half-life ([3]; plasma, 3.52 ml/kg, rat plasma, High group: single i.v. 3.52 ml/kg of 5 times concentrated ASEP, mean ± SD, n=3, read-out: t 1/2 (converted)): 48.6 min
SMILES: O=C(/C=C/c1ccc(O)c(O)c1)O[C@@H]1C[C@](O)(C(=O)O)C[C@@H](O)[C@H]1O [3-CQA, 3-caffeoylquinic acid]
effect on VEGF-induced angiogenesis [1]: significant inhibitory effects | effect on insulin resistance [2]: improve insulin resistance | effect on VEGF-induced angiogenesis [4]: significant inhibitory effects

SMILES: C=C[C@@H]1C2=CCOC(=O)C2=CO[C@H]1O[C@@H]1O[C@H](CO)[C@@H](O)[C@H](O)[C@H]1O [GPS, gentiopicroside]
Stability, RE ([5]; extracted plasma samples, 10h in auto-sampler vials, high spiked level (HQC, 8000-16000 ng/mL)): -9.29% | Stability, RE ([5]; extracted plasma samples, 10h in auto-sampler vials, low spiked level (LQC, 5-30 ng/mL)): 10.09% | Stability, RE ([5]; extracted plasma samples, 10h in auto-sampler vials, middle spiked level (MQC, 400-1600 ng/mL)): 2.52% | Stability, RE ([5]; rat plasma, 6h at room temperature, high spiked level (HQC, 8000-16000 ng/mL)): -13.56% | Stability, RE ([5]; rat plasma, 6h at room temperature, low spiked level (LQC, 5-30 ng/mL)): -10.12% | Stability, RE ([5]; rat plasma, 6h at room temperature, middle spiked level (MQC, 400-1600 ng/mL)): -6.72% | Stability, RE ([5]; rat plasma, freeze-thaw stability (three cycles), high spiked level (HQC, 8000-16000 ng/mL)): -2.10% | Stability, RE ([5]; rat plasma, freeze-thaw stability (three cycles), low spiked level (LQC, 5-30 ng/mL)): 14.78% | Stability, RE ([5]; rat plasma, freeze-thaw stability (three cycles), middle spiked level (MQC, 400-1600 ng/mL)): 1.22% | Stability, RE ([5]; rat plasma, long-term stability (-80℃,15 days), high spiked level (HQC, 8000-16000 ng/mL)): 9.68% | Stability, RE ([5]; rat plasma, long-term stability (-80℃,15 days), low spiked level (LQC, 5-30 ng/mL)): 12.72% | Stability, RE ([5]; rat plasma, long-term stability (-80℃,15 days), middle spiked level (MQC, 400-1600 ng/mL)): 4.29% | AUC0-∞ ([3]; in vivo): 118.37 ± 6.75 ng·h/mL | AUC(0-t) ([3]; in vivo): 108.95 ± 5.92 ng·h/mL | Cl ([3]; in vivo): 3.83 ± 0.23 L/h | MRT0-t ([3]; in vivo): 15.6 ± 0.6 min | MRT0-∞ ([3]; in vivo): 21 ± 2.4 min | Vd ([3]; in vivo): 1.45 ± 0.16 L | t 1/2 ([3]; in vivo): 15.6 ± 2.4 min | AUC(0-t) ([3]; in vivo, AUC0-t): 63.6 ± 2.53 ng·h/mL | AUC(0-inf) ([3]; in vivo, AUC0-∞): 68.2 ± 1.88 ng·h/mL | clearance ([3]; in vivo, Cl): 55.3 mL/min | MRT last ([3]; in vivo, MRT0-t): 21.6 ± 0.6 min | MRT inf ([3]; in vivo, MRT0-∞): 25.2 ± 3 min | Vd ([3]; in vivo, Vd): 1.08 ± 0.26 L | half-life ([3]; in vivo, t 1/2): 13.8 ± 3.6 min | effect on phosphorylation of AKT [6]: activate the phosphorylation of AKT
